In patent US6642353B1, “Peptide ligands for the erythropoietin receptor” (Chugai Seiyaku Kabushiki Kaisha, priority 2000, dated 2003):
Blank lines part the entries; values can stand above or below the molecule they belong to. Positions of bridges follow the written chain, without caps; N, C: chain ends. No end group written: not given here.

What was measured:
TF-1 cells = test: TF-1 cell proliferation assay; format: cell-based, human
Method: To evaluate the biological activities of two representative synthetic peptides containing the 12-mer consensus sequence, peptides ERB1-7 and ERB1-8 were tested for their ability to stimulate proliferation of the EPO-responsive cell line (TF-1).
TF-1 cells were propagated in RPMI 1640 containing 10% BCS and 5 ng/ml GM-CSF. […] Also tested as a negative control was an IL-6 peptide having the sequence […] (SEQ ID NO:87). Peptide concentrations were tested over a 1,000-fold concentration range of 0.02 to 20 μM.

chimeric Ig-EPOR protein [1] = target: T1, chimeric Ig-EPOR protein (Homo sapiens, UniProt P19235); test: phage ELISA, relative affinities of binding clones for Ig-EPOR; details: optical density per phage at 50% ERB1 maximum response × 1×10^8; ERB1 = standard
T1 construct: a fusion protein having domains corresponding to murine IgG1 and the extracellular domain (ECD) of the human EPOR; made in house; secreted into the medium
T1 sequence (P01868 98-324 partner limits assumed, one chain of several): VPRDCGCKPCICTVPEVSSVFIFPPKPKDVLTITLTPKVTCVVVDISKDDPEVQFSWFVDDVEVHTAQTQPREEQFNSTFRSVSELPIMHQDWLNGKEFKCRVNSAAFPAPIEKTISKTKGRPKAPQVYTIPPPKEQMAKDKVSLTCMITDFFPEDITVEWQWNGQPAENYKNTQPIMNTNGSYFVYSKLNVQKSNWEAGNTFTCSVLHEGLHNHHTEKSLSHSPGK
Method: To better characterize the phage isolates having binding specificity for the EPOR, we compared the relative affinities of the binding clones presented in FIG. 4, using a phage ELISA procedure. Phage stocks of the binding clones were titered in triplicate to accurately determine the concentration of pfu/ml for each lysate. Different isolates were then assayed by ELISA using normalized phage concentrations so that all clones were tested using equivalent numbers of phage. Optical densities in the ELISA corresponding to the equivalent of a 50% maximum response in the ERB1 trial were next determined for each of the different phage isolates. […] The normalized relative affinity (“Rel. Aff.”) for each clone is shown to the right of the clone's peptide sequence in FIG. 4.

chimeric Ig-EPOR probe = target: T2, chimeric Ig-EPOR probe (Homo sapiens, UniProt P19235); test: EPOR-specific magnetic bead phage ELISA; format: binding; details: anti-M13 detection
T2 construct: a fusion protein having domains corresponding to murine IgG1 and the extracellular domain (ECD) of the human EPOR; made in house; secreted into the medium
T2 sequence (P01868 98-324 partner limits assumed, one chain of several): as above
Method: A magnetic bead ELISA protocol was used to verify that the ERB1 phage clone bound to the chimeric Ig-EPOR probe by specific interactions. The chimeric Ig-EPOR probe was bound to magnetic beads displaying rat anti-murine IgG1, substantially as described above. Samples (100 μl) of 1:2 serial dilutions (PBS and 1% BSA) of a phage lysate were combined with the beads, and the phage allowed to bind the immobilized probe for 1 hr at room temperature. Phage used in this procedure were ERB1 and two negative control phage: HPKF, a clone that binds specifically to a commercially obtained anti-IL-8 mAb, and IL6-B26, a clone that binds specifically to a human IL-6 receptor. After removing unbound phage by washing four times with 200 μl aliquots of TBST (25 mM TrisHCl, pH 7.2, 0.15 M NaCl, 0.1% TWEEN® 20), an HRP-conjugated anti-M13 detection antibody (Pharmacia) diluted 1:5,000 in PBS was added. After incubating (1 hr at room temperature), excess detection antibody was removed by washing and 10 μl for each of the washed bead complexes was transferred to microtiter wells (FALCON® 3912, MICROTEST III, Beckton Dickinson, Oxnard, Calif.) that served as reaction vessels. Each well was developed using the TMB peroxidase substrate and the extent of the peroxidase reaction measured spectrophotometrically, as described in Example 4.

[2] = system: extracellular domains of the receptors for tumor necrosis factor (TNFR); test: phage binding control, TNFR extracellular domain; details: results not shown
interleukin-6 (IL-6R) = target: T3, interleukin-6 (IL-6R) (Homo sapiens, UniProt P08887); test: phage binding control, IL-6R extracellular domain; details: results not shown
T3 sequence (P08887 20-365 limits assumed): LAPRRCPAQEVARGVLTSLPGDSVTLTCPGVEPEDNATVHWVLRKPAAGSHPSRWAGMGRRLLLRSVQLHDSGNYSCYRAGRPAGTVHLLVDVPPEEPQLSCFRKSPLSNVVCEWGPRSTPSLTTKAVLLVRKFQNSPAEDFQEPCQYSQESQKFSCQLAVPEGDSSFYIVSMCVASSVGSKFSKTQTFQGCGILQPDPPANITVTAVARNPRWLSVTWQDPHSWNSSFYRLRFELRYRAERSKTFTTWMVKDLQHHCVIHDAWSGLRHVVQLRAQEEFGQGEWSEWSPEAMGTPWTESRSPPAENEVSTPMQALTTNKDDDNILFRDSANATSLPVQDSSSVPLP

[3] = Biacore analysis of binding kinetics of Ig-EPOR; details: known affinity values 0.1-1.1×10^−9 k (Karlsson et al.)
Source text: Contaminating bands and degradation products on the gel were minimal. […] The Ig-EPOR protein easily was recoverable in microgram amounts using the procedures described above.

chimeric Ig-EPOR protein [4] = target: T4, chimeric Ig-EPOR protein (human; murine, UniProt P19235 25-250); test: control in the peptide inhibition ELISA (FIGS. 6 and 7)
T4 construct: extracellular domain; Secreted from COS-7 cells transfected with pcDNA3-IgG1-EPOR; major species about 59 kDa; also called IgG-EPOR; chimeric receptor; not shown: hinge region, CH2 and CH3 domains of the murine IgG1 heavy chain
T4 sequence (looked up): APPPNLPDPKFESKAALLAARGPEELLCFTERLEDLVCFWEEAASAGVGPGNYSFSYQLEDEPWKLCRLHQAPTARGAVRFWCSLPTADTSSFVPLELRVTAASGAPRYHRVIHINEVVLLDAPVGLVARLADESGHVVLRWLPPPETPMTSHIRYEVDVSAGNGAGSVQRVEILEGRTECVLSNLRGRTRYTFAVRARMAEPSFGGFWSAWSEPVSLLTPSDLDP
Source text: Synthetic peptides having the sequences […]-[…] (SEQ ID NO:81), and […]-[…] (SEQ ID NO:82) were synthesized in the cyclic (disulfide-bonded) form using standard procedures (Peninsula Laboratories, Belmont, Calif.).

chimeric Ig-EPOR protein [5] = target: T4, chimeric Ig-EPOR protein; test: peptide inhibition ELISA (Ig-EPOR binding to EPO-coated plates)
Source text: (§1) Thus, the consensus 12-mer peptide sequence given by SEQ ID NO:12 likely was necessary but not sufficient to create synthetic peptides having high affinity for the EPOR.

chimeric Ig-EPOR protein [6] = target: T4, chimeric Ig-EPOR protein; test: peptide inhibition ELISA: Ig-EPOR binding to EPO-coated plates
Source text: as §1

Molecule: GGAFCEAVGCGPDRNFYGG [IL-6 peptide, reference compound]
stimulation of TF-1 cell proliferation (TF-1 cells; any tested concentration up to 20 μM): did not stimulate TF-1 cell proliferation

Molecule: DFDVCRRGWVGHCKDWLSDEYASNPSYPVPHSYYLNPP [ERB1]
normalized relative affinity (Rel. Aff.) (chimeric Ig-EPOR protein [1]): 1.0
binding to the Ig-EPOR probe (chimeric Ig-EPOR probe): bound specifically
binding to extracellular domain of TNFR [2]: did not bind
binding to extracellular domain of IL-6R (interleukin-6 (IL-6R)): did not bind

Molecule: Ig-EPOR: chimeric protein: ligand binding domain of human EPOR and hinge, CH2 and CH3 domains of murine IgG1
binding kinetics [3]: in good agreement with known affinity values

Molecule: EPO: recombinant human EPO (R & D Systems)
half maximal response (ED50), TF-1 proliferation (TF-1 cells; three days culture): 0.05 to 0.1 unit/ml

Now from value to molecule:

binding result (chimeric Ig-EPOR protein [4]): no binding
B1: IL-6 peptide (peptide)
peptide: GGAFCEAVGCGPDRNFYGG
notes: also called irrelevant IL-6 peptide

binding result (chimeric Ig-EPOR protein [5]): no binding
B2: 14-mer peptide 7N-4 (peptide)
peptide: CRRGWVGQCKAWFN
modifications: not fully specified (bridges); also: synthesized as (cyclic form there)
notes: N-terminal truncation of ERB1-7

binding result (chimeric Ig-EPOR protein [5]): no binding
B3: 15-mer peptide 7N-3 (peptide)
peptide: GCRRGWVGQCKAWFN
modifications: not fully specified (bridges); also: synthesized as (cyclic form there)
notes: as for B2

IC50 (chimeric Ig-EPOR protein [6]): ~3.7 µM
B4: 16-mer peptide 7N-2 (peptide)
peptide: EGCRRGWVGQCKAWFN
modifications: disulfide 3-11 (inferred)
notes: as for B2
